Test results as given in the supplement of paper PMC10307832.

Key:
Assay in all cases: relative viability (nuclei count vs DMSO), 5 days (fraction); higher = more cells survive
[1] = compound: CN(C)C(=N)NC(=N)N [Metformin] + Cc1nc(Nc2ncc(C(=O)Nc3c(C)cccc3Cl)s2)cc(N2CCN(CCO)CC2)n1 [Dasatinib] (partner 0.075 µM)
How it was run: (§1)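 Relative viability was taken as the ratio of nuclei in treated wells to nuclei in vehicle wells. Lung cancer cell lines in 1536-well plates received compounds by pin tool one day after seeding, either one drug alone or a fixed anchor-drug dose plus five library-drug doses (not always all listed) in √10 steps. Nuclei were counted on 4× images after 5 days of treatment, and values are medians of duplicate plates.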

[2] = compound: N#CC1(c2ccc(NC(=O)c3cccnc3NCc3ccncc3)cc2)CCCC1 [Apatinib] + COc1cc2c(Oc3ccc(NC(=O)C4(C(=O)Nc5ccc(F)cc5)CC4)cc3F)ccnc2cc1OCCCN1CCOCC1 [Foretinib] (partner 0.25 µM)
How it was run: as §1

[3] = compound: N#CC1(c2ccc(NC(=O)c3cccnc3NCc3ccncc3)cc2)CCCC1 [Apatinib] + C[C@@H](Oc1cc(-c2cnn(C3CCNCC3)c2)cnc1N)c1c(Cl)ccc(F)c1Cl [Crizotinib] (partner 1 µM)
How it was run: as §1

[4] = compound: CN(C)C(=N)NC(=N)N [Metformin] + Cc1nc(NC(=O)N2CCC[C@H]2C(N)=O)sc1-c1ccnc(C(C)(C)C(F)(F)F)c1 [Alpelisib] (partner 2 µM)
How it was run: as §1

Cell Line | relative viability ([1]; first compound 10 µM) | relative viability ([1]; first compound 31.62 µM) | relative viability ([1]; first compound 100 µM) | relative viability ([1]; first compound 316.23 µM) | relative viability ([1]; first compound 1000 µM) | relative viability ([2]; first compound 0.08 µM) | relative viability ([2]; first compound 0.253 µM) | relative viability ([2]; first compound 0.8 µM) | relative viability ([2]; first compound 2.53 µM) | relative viability ([2]; first compound 8 µM) | relative viability ([3]; first compound 0.08 µM) | relative viability ([3]; first compound 0.253 µM) | relative viability ([3]; first compound 0.8 µM) | relative viability ([3]; first compound 2.53 µM) | relative viability ([3]; first compound 8 µM) | relative viability ([4]; first compound 31.62 µM) | relative viability ([4]; first compound 100 µM) | relative viability ([4]; first compound 316.23 µM) | relative viability ([4]; first compound 1000 µM) | relative viability ([4]; first compound 10 µM)
CAL-12T | 0.471 | 0.58 | 0.479 | 0.357 | 0.515 | 1.3 | 1.14 | 1.11 | 0.992 | 0.974 | 0.801 | 0.569 | 0.694 | 0.695 | 0.459 | 1.21 | 1.08 | 0.812 | 0.907 | 
BEN | 0.421 | 0.409 | 0.34 | 0.281 | 0.414 | 0.477 | 0.548 | 0.668 | 0.558 | 0.726 | 0.957 | 1 | 0.94 | 0.671 | 0.65 | 1.47 | 1.43 | 1.03 | 1.24 | 1.16
HCC-366 | 0.565 | 0.566 | 0.632 | 0.568 | 0.81 | 0.977 | 0.904 | 0.966 | 0.93 | 0.963 | 0.437 | 0.587 | 0.605 | 0.466 | 0.547 | 0.545 | 0.472 | 0.452 | 0.535 | 0.43
EMC-BAC-2 | 0.37 | 0.312 | 0.323 | 0.334 | 0.395 | 1.08 | 1.12 | 1.04 | 0.919 | 0.858 | 0.726 | 0.73 | 0.764 | 0.633 | 0.475 | 0.704 | 0.675 | 0.639 | 0.674 | 0.612
COR-L 105 | 0.452 | 0.542 | 0.44 | 0.33 | 0.348 | 1.36 | 1.11 | 1.23 | 0.768 | 0.849 | 0.871 | 0.696 | 0.796 | 0.727 | 0.586 | 1.33 | 1.07 | 0.963 | 0.802 | 1.14
A-427 | 0.53 | 0.722 | 0.676 | 0.74 | 0.695 | 1.22 | 0.828 | 1.03 | 1.01 | 0.598 | 0.902 | 0.969 | 0.919 | 0.808 | 0.705 | 1.14 | 1.02 | 1.05 | 1.03 | 1.07
LCLC-103H | 0.598 | 0.579 | 0.579 | 0.514 | 0.588 | 0.785 | 0.957 | 0.681 | 0.805 | 0.573 | 1.02 | 1.05 | 1.01 | 0.97 | 1.07 | 1 | 1.14 | 1.03 | 1 | 1.05
NCI-H520 | 0.24 | 0.195 | 0.265 | 0.195 | 0.217 | 0.865 | 0.72 | 0.844 | 0.558 | 0.651 | 0.912 | 0.701 | 0.737 | 0.614 | 0.45 | 0.855 | 0.948 | 0.665 | 0.86 | 0.764
NCI-H3122 | 0.509 | 0.879 | 0.897 | 0.666 | 0.896 | 0.995 | 0.891 | 0.947 | 1.06 | 0.918 | 0.3 | 0.246 | 0.256 | 0.27 | 0.328 | 0.598 | 0.649 | 0.625 | 0.668 | 0.524
UMC-11 | 0.528 | 0.482 | 0.546 | 0.447 | 0.45 | 1.04 | 1.09 | 0.935 | 0.939 | 1.03 | 0.619 | 0.57 | 0.617 | 0.519 | 0.493 | 0.992 | 1.03 | 0.988 | 0.971 | 1.06
PC-3 [JPC-3] | 0.944 | 0.889 | 0.979 | 0.886 | 0.986 | 1.02 | 1 | 0.986 | 0.925 | 0.853 | 1.02 | 0.962 | 0.922 | 0.933 | 0.901 | 0.971 | 1.03 | 0.949 | 0.965 | 0.92
EKVX |  | 0.856 | 0.598 | 0.671 | 0.779 | 0.71 | 0.872 | 0.951 | 0.615 | 0.775 | 0.793 | 1.06 | 0.941 | 0.654 | 0.671 | 0.934 | 0.88 | 0.812 | 0.835 | 0.656
HCC-827 |  | 0.317 | 0.356 | 0.317 | 0.316 | 1.05 | 1.04 | 1.01 | 1 | 0.763 | 0.969 | 0.887 | 0.767 | 0.83 | 0.575 | 0.822 | 0.896 | 0.837 | 0.782 | 
NCI-H838 | 0.271 | 0.254 | 0.356 | 0.241 | 0.348 | 1.14 | 1.18 | 0.997 | 0.946 | 0.986 | 0.892 | 0.936 | 0.77 | 0.76 | 0.775 | 0.969 | 0.969 | 0.988 | 1.02 | 1.04
NCI-H2126 | 0.548 | 0.557 | 0.556 | 0.372 | 0.337 | 1.28 | 1.12 | 1.23 | 0.954 | 0.987 | 1.03 | 0.945 | 1.07 | 0.957 | 0.894 | 0.752 | 0.755 | 0.716 | 0.755 | 0.695
COR-L23 | 0.496 | 0.436 | 0.413 | 0.393 | 0.121 | 1.03 | 0.952 | 0.926 | 0.903 | 0.836 | 0.627 | 0.647 | 0.648 | 0.52 | 0.565 | 0.721 | 0.72 | 0.564 | 0.7 | 0.633
NCI-H727 | 0.399 | 0.451 | 0.478 |  | 0.49 | 1.02 | 0.676 | 0.937 | 0.835 | 0.912 | 0.756 | 0.693 | 0.719 | 0.679 | 0.583 | 0.749 | 0.469 | 0.647 | 0.533 | 0.657
LXF-289 | 0.186 | 0.188 | 0.188 | 0.137 | 0.236 | 0.915 | 1.02 | 0.984 | 0.954 | 0.905 | 0.797 | 0.817 | 0.778 | 0.749 | 0.742 | 0.97 | 0.963 | 0.943 | 1.01 | 0.909
HCC-15 |  | 0.625 | 0.581 | 0.556 | 0.584 | 1.1 | 0.866 | 1 | 0.999 | 0.834 | 0.85 | 0.814 | 0.811 | 0.799 | 0.717 | 1.07 | 1.03 | 0.659 | 0.919 | 0.921
NCI-H2085 | 0.327 | 0.336 | 0.333 | 0.306 | 0.358 | 0.991 | 1.05 | 0.79 | 0.854 | 0.817 | 0.89 | 0.794 | 0.797 | 0.777 | 0.623 | 0.955 | 0.944 | 0.903 | 0.985 | 0.956
NCI-H1563 | 0.535 | 0.573 | 0.574 | 0.545 | 0.489 | 0.897 | 0.996 | 0.884 | 0.812 | 0.897 | 0.824 | 0.848 | 0.864 | 0.851 | 0.797 | 0.914 | 1.06 | 0.827 | 0.72 | 1.06
HCC-78 | 0.405 | 0.469 | 0.459 | 0.549 | 0.327 | 0.6 | 0.513 | 0.523 | 0.536 | 0.535 | 0.328 | 0.325 | 0.326 | 0.347 | 0.346 | 0.537 | 0.57 | 0.469 | 0.598 | 0.408
LCLC-97TM1 | 0.739 | 0.734 | 0.591 | 0.529 | 0.725 | 0.907 | 0.882 | 0.944 | 0.959 | 0.584 | 0.449 | 0.409 | 0.372 | 0.264 | 0.161 | 0.284 | 0.339 | 0.252 | 0.346 | 0.285
NCI-H441 |  | 0.577 | 0.609 | 0.385 | 0.544 | 0.872 | 1.14 | 0.79 | 0.904 | 0.732 | 0.789 | 0.756 | 0.809 | 0.416 | 0.426 |  | 0.765 |  | 0.572 | 0.566
NCI-H1651 | 0.757 | 0.349 | 0.346 | 0.361 | 0.464 | 0.925 | 0.897 | 0.765 | 0.577 | 0.495 | 0.916 | 0.86 | 0.84 | 0.8 | 0.733 | 1.13 | 1.14 | 1.08 | 1.15 | 1.21
NCI-H1944 | 0.22 | 0.227 | 0.252 | 0.254 | 0.246 | 0.869 | 0.942 | 0.691 | 0.807 | 0.603 | 1.03 | 1.17 | 0.998 | 0.983 | 0.911 | 1.01 | 1.06 | 0.886 | 0.973 | 0.936
